Data published in the NIST ThermoML archive (doi:10.1016/j.jct.2016.07.051).

Experiment: mn = molality of the nth substance listed, in mol/kg
Details: 100 kPa, Liquid; for speed of sound: Frequency=3 MHz, Sing-around technique in a fixed-path interferometer; for mass density: Vibrating tube method

O=C[C@H](O)[C@@H](O)[C@H](O)[C@H](O)CO [D-glucose] + O
Details | mass density [kg/m3] | speed of sound [m/s]
293.15 K, m1 = 0.05008 | 1001.67 | –
293.15 K, m1 = 0.0698 | 1003.02 | 1487
293.15 K, m1 = 0.09118 | 1004.47 | 1488.3
293.15 K, m1 = 0.1108 | 1005.8 | 1489.5
293.15 K, m1 = 0.1312 | – | 1490.8
298.15 K, m1 = 0.05008 | 1000.44 | –
298.15 K, m1 = 0.0698 | 1001.76 | 1501.4
298.15 K, m1 = 0.09118 | 1003.17 | 1502.7
298.15 K, m1 = 0.1108 | 1004.47 | 1504
298.15 K, m1 = 0.1312 | 1005.8 | 1505.3
303.15 K, m1 = 0.05008 | 999.038 | 1512.2
303.15 K, m1 = 0.0698 | 1000.35 | 1513.4
303.15 K, m1 = 0.09118 | 1001.76 | 1514.7
303.15 K, m1 = 0.1108 | 1003.05 | 1515.9
303.15 K, m1 = 0.1312 | 1004.38 | 1517.2
303.15 K, m1 = 0.1499 | 1005.58 | 1518.3
308.15 K, m1 = 0.05008 | 997.396 | 1522.8
308.15 K, m1 = 0.0698 | 998.701 | 1524
308.15 K, m1 = 0.09118 | 1000.11 | 1525.4
308.15 K, m1 = 0.1108 | 1001.39 | 1526.6
308.15 K, m1 = 0.1312 | 1002.71 | –
308.15 K, m1 = 0.1499 | 1003.91 | 1529
313.15 K, m1 = 0.05008 | 995.571 | 1531.6
313.15 K, m1 = 0.0698 | 996.873 | 1532.8
313.15 K, m1 = 0.09118 | 998.274 | 1534
313.15 K, m1 = 0.1108 | 999.553 | 1535.1
313.15 K, m1 = 0.1312 | 1000.87 | 1536.2
313.15 K, m1 = 0.1499 | 1002.06 | 1537.3
318.15 K, m1 = 0.05008 | 993.55 | –
318.15 K, m1 = 0.0698 | 994.845 | 1540.2
318.15 K, m1 = 0.09118 | 996.24 | 1541.4
318.15 K, m1 = 0.1108 | – | 1542.4
318.15 K, m1 = 0.1312 | 998.817 | –
318.15 K, m1 = 0.1499 | 1000 | 1544.6
323.15 K, m1 = 0.05008 | 991.349 | 1545.3
323.15 K, m1 = 0.0698 | 992.639 | 1546.3
323.15 K, m1 = 0.09118 | 994.028 | 1547.4
323.15 K, m1 = 0.1108 | 995.295 | 1548.5
323.15 K, m1 = 0.1312 | 996.6 | 1549.5
323.15 K, m1 = 0.1499 | 997.788 | 1550.5

CCC[NH3+].O=C[O-] [propylammonium formate] + O
Details | mass density, m1 = 0.1 [kg/m3] | mass density, m1 = 0.2 [kg/m3] | mass density, m1 = 0.3 [kg/m3] | mass density, m1 = 0.4 [kg/m3] | speed of sound, m1 = 0.1 [m/s] | speed of sound, m1 = 0.2 [m/s] | speed of sound, m1 = 0.3 [m/s] | speed of sound, m1 = 0.4 [m/s]
293.15 K | 999.222 | 1000.07 | 1000.91 | 1001.81 | 1492.2 | 1500.4 | 1508.2 | 1516.9
298.15 K | 997.851 | 998.673 | 999.689 | 1000.56 | 1505.7 | 1513.4 | 1520.8 | 1528.9
303.15 K | 996.637 | 997.448 | 998.238 | 999.087 | 1517.5 | 1524.9 | 1531.8 | 1539.4
308.15 K | 994.884 | 995.676 | 996.581 | 997.41 | 1527.8 | 1534.7 | 1541.3 | 1548.4
313.15 K | 993.191 | 993.97 | 994.725 | 995.542 | 1536.4 | 1543 | 1549.3 | 1555.9
318.15 K | 990.986 | 991.749 | 992.694 | 993.502 | 1543.6 | 1549.9 | 1555.9 | 1562
323.15 K | 988.793 | 989.611 | 990.498 | 991.295 | 1550.5 | 1555.4 | 1561.1 | 1566.9

O [water] + CCC[NH3+].O=C[O-]
m2 = 0
Details | mass density [kg/m3] | speed of sound [m/s]
313.15 K | – | 1528.9
318.15 K | – | 1536.6
323.15 K | 988.031 | –

O [water] + O=C[C@H](O)[C@@H](O)[C@H](O)[C@H](O)CO
m2 = 0
Details | mass density [kg/m3] | speed of sound [m/s]
313.15 K | – | 1528.9
318.15 K | – | 1536.6
323.15 K | 988.031 | –
